Source: US7067144B2, “Compositions and methods for systemic inhibition of cartilage degradation” (Omeros Corporation, priority 1998, dated 2006)

Assays:
[1] = tested on: rheumatoid synovial fibroblasts (RSF); conditions: concentrations of 10–150 μM; IL-1 or IL-8 stimulated; cited from earlier work
PKC = conditions: read-out: IC50 PKC inhibitory activity; cited from earlier work
experimental OA = conditions: sustained systemic delivery; cited from earlier work
NFκB activation = conditions: IL-1-stimulated RSF; cited from earlier work
paw inflammation = conditions: dose of 50 mg/kg; cited from earlier work
[2] = tested on: adjuvant-induced arthritis; conditions: p.o. at 30 and 60 mg/kg/day; cited from earlier work
[3] = tested on: prostaglandin E2 production in synovial cultures; experiment: PGE2 formation in cultured human synovial fibroblasts during overnight IL-1 priming; format: cell-based; conditions: Fibroblast, co-incubation with IL-1 (10 U/ml), 16 hr, mean±SEM
Method: (§1) 1. Cell Culture. […] Experiments were performed on cells from passages 3–8. […] The growth medium was replaced twice weekly.
2. Experimental Treatments.
3. Measurement of Prostaglandin E2. […] Samples were stored at −80° until processing.
1. Data analysis. Immunoassays were routinely performed in duplicate aliquots from each culture. Experimental determinations were performed on duplicate or triplicate cultures. Each experiment was repeated in at least two cell lines. Nonlinear regression curve fitting and statistical analyses were performed using Graph-PAD Prism software (San Diego, Calif.).
The actions of ketoprofen, a cyclooxygenase inhibitor, to attenuate PGE2 formation were determined by co-incubation with IL-1 during prolonged exposure (16 hr); and by brief pre-incubation prior to a subsequent GPCR agonist challenge interval, as shown in FIG. 8.

[4] = tested on: prostaglandin E2 production in synovial cultures; conditions: histamine 100 μM or bradykinin 1 μM; overnight IL-1 (10 U/ml) priming
Method: Cell Culture. Synovial tissue was obtained from osteoarthritis patients undergoing joint replacement surgery through the Clinical Research Center, MacNeal Hospital, and transported to the laboratory in Dulbecco's Modified Eagle's Medium (DMEM) containing penicillin (100 units/ml), streptomycin (100 μg/ml), and fungizone (0.25 μg/ml). The synovium was dissected and minced with scissors, and plated as explants in culture medium composed of DMEM containing L-glutamine (2 mM), heat inactivated fetal bovine serum (10% v/v), plus antibiotics. Cultures were housed at 37° C. in a humidified atmosphere of 5% CO2. Adherent synovial cells grew out of the explants within 2–3 weeks, and were passaged by trypsinization. Seed cultures were fed twice weekly and were passaged at confluency. Experiments were performed on cells from passages 3–8. Experimental cultures were plated into 35 mm dishes at a density of 7.5×10^3 cells/cm^2 in 2 ml culture medium. […]
Measurement of Prostaglandin E2. […] Aliquots of culture supernatant were analyzed by competitive binding radioimmunoassay as specified by the manufacturer (Sigma Chemical Co.), using an antibody with equivalent reactivity toward prostaglandins E2 and E1. For quantitation, a standard curve was prepared with each assay using fixed concentrations of [^3H]prostaglandin E2, and increasing concentrations of authentic competing prostaglandin E2.

[5] = tested on: IL-6 production by synovial cultures; experiment: IL-6 production by synovial cultures stimulated with IL-1 plus GPCR ligands; format: cell-based, human; conditions: 0.75 μM ketoprofen
Method: FIG. 9 is a graphical representation of the effect of ketoprofen on IL-6 production by synovial cultures at 16 hours in the presence of the indicated concentrations of IL-1 plus the added G-protein coupled receptor ligands. Cultures were incubated for 16 hours with IL-1 at the indicated concentration (0.3, 1.0 and 3.0 pg/ml) in the absence and presence of 0.75 μM ketoprofen in experimental growth medium with one of the following additional receptor ligands: 1) isoproterenol (ISO) at 1.0 μM to activate the camp pathway, or 2) histamine (HIS) at 100 μM to activate the IP3/calcium pathway. Culture supernatants were collected and replaced with fresh media aliquots containing the same agonist additions at 8 hour intervals. Following treatment, the supernatant medium corresponding to the treatment interval from 8 to 16 hours was collected and analyzed for IL-6.
as §1
4. Measurement of IL-6. Production of the cytokine, IL-6, was also measured in aliquots of supernatant culture media which had been stored frozen at −80° C. IL-6 was measured by sandwich ELISA with alkaline phosphatase detection as described by the manufacturer (Pharmingen) and quantitated using standard curves prepared with the respective pure recombinant human cytokines. […]

[6] = tested on: IL-8 production by synoviocyte cultures; experiment: IL-8 production by synoviocyte cultures in response to IL-1; format: cell-based, human
Method: as §1
The kinetics of induction of interleukin-6 in response to stimulation with IL-1 are described. Synoviocyte cultures were exposed to the indicated treatments with IL-1 plus either histamine to activate signaling through inositol trisphosphate (InsP3)/protein kinase C pathway or isproterenol to activate increases in intracellular cAMP. Production of PGE2, IL-6, and IL-8 were measured in the culture supernatants following 1, 2, 4, 6, and 24 hr treatments. In this experiment, each treatment interval was performed in a separate culture. […] IL-1 also produced a significant elevation of IL-8 (2000 pg/ml), which was first measurable at 6 hr of treatment.
The effect of ketoprofen on the induction of cytokine production by IL-1 and GPCR agonists was examined. The protocol also tested the effects of IL-1 concentration dependence on the IL-6 steady state induction. Synoviocyte cultures were exposed to indicated concentrations of IL-1 and GPCR agonists. Culture supernatants were collected and replaced with fresh media aliquots containing the same agonist additions at 8-hr intervals. PGE2, IL-6, and IL-8 in the supernatants were assayed as described.

[7] = in vivo, cited from earlier work
Type I IL-1R [8] = target: T1, Type I IL-1R (Homo sapiens, UniProt P14778); conditions: in vitro efficacy; cited from earlier work
T1 sequence (P14778 18-569): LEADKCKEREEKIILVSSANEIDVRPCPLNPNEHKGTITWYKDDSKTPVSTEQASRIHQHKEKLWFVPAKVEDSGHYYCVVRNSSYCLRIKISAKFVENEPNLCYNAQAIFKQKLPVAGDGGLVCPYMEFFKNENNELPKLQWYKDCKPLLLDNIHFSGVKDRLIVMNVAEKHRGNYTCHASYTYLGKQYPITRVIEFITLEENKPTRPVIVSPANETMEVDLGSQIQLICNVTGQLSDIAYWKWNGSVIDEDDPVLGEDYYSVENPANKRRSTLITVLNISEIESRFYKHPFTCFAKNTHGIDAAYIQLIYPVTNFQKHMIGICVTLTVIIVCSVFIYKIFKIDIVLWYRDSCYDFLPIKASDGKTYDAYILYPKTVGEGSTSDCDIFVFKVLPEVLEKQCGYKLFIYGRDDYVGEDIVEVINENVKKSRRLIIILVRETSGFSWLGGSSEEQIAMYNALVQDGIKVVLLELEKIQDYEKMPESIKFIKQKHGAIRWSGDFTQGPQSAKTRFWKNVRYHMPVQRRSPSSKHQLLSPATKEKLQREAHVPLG

BMP-4 receptors = conditions: 125I-BMP-4; read-out: apparent dissociation constant; cited from earlier work
Type I IL-1R [9] = target: T1, Type I IL-1R; conditions: cells that express the Type I IL-1R; cited from earlier work

With `c1cnc2c(c1)ccc1cccnc12` [1,10-o-phenanthroline] as the molecule, how does the “effect on penetration of cartilage by RSF cells” value [1] read?
Its value is “substantially inhibited”.

Which IC50 (PKC) does the source give for `Cn1c2ccccc2c2c3c(c4c5ccccc5n(CCC#N)c4c21)CNC3=O` [G-6203] here?
Its IC50 is 2000 to 10000 nM.

For `CC(=N)NCCCC[C@H](N)C(=O)O` [L-NIL], which “effect on progression of experimental OA” value (experimental OA) is on record?
Its value is “reduces the progression of experimental OA”.

Which “activity on PGE2 production” value (NFκB activation) does the source give for `CN(C)C[C@H]1CCn2c(c(C3=C(c4cn(C)c5ccccc45)C(=O)NC3=O)c3ccccc32)C1` [RO 32-0432] here?
The value was “inactive”.

Which results are given for `C[S+]([O-])c1ccc(-c2nc(-c3ccc(F)cc3)c(-c3ccncc3)[nH]2)cc1` (stereo not shown) [SB203580, 4-(4-fluorophenyl)-2-(4-methylsulfinylphenyl)-5-(4-pyridyl)imidazole]?
effect on paw inflammation (paw inflammation): significant inhibition of paw inflammation; antiarthritic activity [2]: Antiarthritic activity

Which “activity on PGE2 production” value (NFκB activation) does the source give for `O=C1CCNC(=O)c2[nH]ccc21` [aldisine] here?
Its value is “inactive”.

Which IC50 [3] does the source give for `CCc1cccc2c3c([nH]c12)C(CC)(CC(=O)O)OCC3` (stereo not shown) [etodolac] here?
The IC50 was 15.2 ± 4.6 nM.

With `NCCc1c[nH]cn1` [histamine] as the molecule, how does the “fold increase in PGE2 production compared to IL-1 primed cells receiving no GPCR agonist” value [4] read?
Its value is 5–10 fold.

Which IC50 [3] does the source give for `COc1ccc2c(c1)c(CC(=O)O)c(C)n2C(=O)c1ccc(Cl)cc1` [indomethacin] here?
The IC50 was 3.2 ± 1.5 nM.

Which “effect on IL-6 production in histamine or isoproterenol/IL-1 co-stimulated samples” value ([5]; histamine 100 μM or isoproterenol 1.0 μM plus IL-1) does the source give for `CC(C(=O)O)c1cccc(C(=O)c2ccccc2)c1` (stereo not shown) [ketoprofen] here?
The value was “inhibited”.

What about the inhibition at 0.75 µM ([5]; Homo sapiens, 1.0 pg/ml IL-1, 16 hr, read-out: inhibition of IL-1-elicited IL-6 production) of the same molecule?
Its inhibition at 0.75 µM is no more than 50%.

And the IC50 [3]?
Its IC50 is 4.5 ± 0.8 nM.

What about the “effect on IL-8 production in response to IL-1” value [6] of the same molecule?
Its value is “reduces”.

Which IC50 [3] does the source give for `O=C(c1ccccc1)c1ccc2n1CCC2C(=O)O` (stereo not shown) [ketorolac] here?
The IC50 was 2.2 ± 0.4 nM.

Which “effect on penetration of cartilage by RSF cells” value [1] does the source give for `CC(C)C[C@H](NP(=O)(O)O[C@@H]1O[C@@H](C)[C@H](O)[C@@H](O)[C@H]1O)C(=O)N[C@@H](Cc1c[nH]c2ccccc12)C(=O)O` [phosphoramidon] here?
Its value is “substantially inhibited”.

With Ac-FEWTPGWYQJY-NH2 [AF11567] as the molecule, how does the plasma half-life [7] read?
The plasma half-life was 2.3 to 2.6 h.

With Ac-FEWTPGWYQJYALPL-NH2 [AF12198] as the molecule, how does the metabolism ([7]; iv) read?
The metabolism was “rapid metabolism”.

What about the IC50 (Type I IL-1R [8]) of the same molecule?
Its IC50 is 0.5 to 2 nM.

With “BMP-4: bone morphogenetic protein, member of the TGF-β superfamily” as the molecule, how does the Kd (BMP-4 receptors) read?
The Kd was 0.11 nM.

Which “molar excess required to inhibit IL-1 biological responses” value (Type I IL-1R [9]) does the source give for “IL-1Ra: naturally occurring secreted, soluble ligand that binds to IL-1 receptors; 22 kD protein” here?
Its value is 10–100 fold.

Which IC50 (PKC) does the source give for calphostin C here?
The IC50 was 50000 nM.
